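Results reflect a 48-hour exposure of cells in 96-well plates to compound at five concentrations. The concentration for 50% growth inhibition is given as GI50.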 Active and inactive are the calls of the source. Rule as the data show it: active = GI50 up to about 1.1 µM and inactive = higher.
Assays:
Assay in all cases: growth of human tumour cells (NCI), 48 h
[1] = test system: SR
[2] = test system: UACC-62
[3] = test system: SK-MEL-5
[4] = test system: HOP-62
[5] = test system: OVCAR-4
[6] = test system: EKVX
[7] = test system: CAKI-1
[8] = test system: SF-268
[9] = test system: SN12C
[10] = test system: KM12
[11] = test system: SF-295
[12] = test system: SF-539
[13] = test system: PC-3
[14] = test system: LOX IMVI
[15] = test system: NCI-H23
[16] = test system: OVCAR-5
[17] = test system: U-251
[18] = test system: NCI-H226
[19] = test system: NCI/ADR-RES
[20] = test system: SK-MEL-28

C[C@H]1S[C@H](c2c(Cl)cccc2Cl)N2Cc3ccccc3N=C12
GI50 [1]: 8.07 µM (inactive) | GI50 [2]: 9.82 µM (inactive) | GI50 [3]: 10.2 µM (inactive) | GI50 [4]: 14 µM (inactive) | GI50 [5]: 29.8 µM (inactive) | GI50 [6]: 10.2 µM (inactive) | GI50 [7]: 40.6 µM (inactive) | GI50 [8]: 14.2 µM (inactive) | GI50 [9]: 29.2 µM (inactive) | GI50 [10]: 12 µM (inactive) | GI50 [11]: 9.16 µM (inactive) | GI50 [12]: 14.7 µM (inactive) | GI50 [13]: 14.5 µM (inactive) | GI50 [14]: 12.9 µM (inactive) | GI50 [15]: 11 µM (inactive) | GI50 [16]: 12 µM (inactive) | GI50 [17]: 23.4 µM (inactive)

COc1ccc(-n2nnnc2C2(Nc3ccccc3)CCN(Cc3ccccc3)CC2)cc1
GI50 [1]: 5.3 µM (inactive) | GI50 [2]: 10.5 µM (inactive) | GI50 [3]: 10.2 µM (inactive) | GI50 [4]: 16.5 µM (inactive) | GI50 [5]: 21.3 µM (inactive) | GI50 [6]: 21.6 µM (inactive) | GI50 [18]: 25.2 µM (inactive) | GI50 [8]: > 10 µM (inactive) | GI50 [9]: 7.29 µM (inactive) | GI50 [10]: 3.77 µM (inactive) | GI50 [11]: 13.6 µM (inactive) | GI50 [19]: 7.35 µM (inactive) | GI50 [12]: 16.4 µM (inactive) | GI50 [14]: 9.29 µM (inactive) | GI50 [20]: 13.5 µM (inactive) | GI50 [15]: 21 µM (inactive) | GI50 [16]: 15.7 µM (inactive) | GI50 [17]: 16.4 µM (inactive)

COc1cc(/C=C/C(C)=O)ccc1OP(=O)(O)O
GI50 [2]: > 100 µM (inactive) | GI50 [3]: > 100 µM (inactive) | GI50 [4]: > 100 µM (inactive) | GI50 [5]: > 100 µM (inactive) | GI50 [6]: > 100 µM (inactive) | GI50 [18]: > 100 µM (inactive) | GI50 [7]: > 100 µM (inactive) | GI50 [8]: > 100 µM (inactive) | GI50 [9]: > 100 µM (inactive) | GI50 [10]: > 100 µM (inactive) | GI50 [11]: > 100 µM (inactive) | GI50 [12]: > 100 µM (inactive) | GI50 [13]: > 100 µM (inactive) | GI50 [14]: > 100 µM (inactive) | GI50 [20]: > 100 µM (inactive) | GI50 [15]: > 100 µM (inactive) | GI50 [16]: > 100 µM (inactive) | GI50 [17]: > 100 µM (inactive)

O=c1[nH]c(=O)n([C@@H]2O[C@H](CO)[C@@H](O)[C@@H]2F)cc1I [FIALURIDINE]
GI50 [2]: > 100 µM (inactive) | GI50 [3]: > 100 µM (inactive) | GI50 [4]: > 100 µM (inactive) | GI50 [5]: > 100 µM (inactive) | GI50 [6]: > 100 µM (inactive) | GI50 [18]: > 100 µM (inactive) | GI50 [7]: > 100 µM (inactive) | GI50 [8]: > 100 µM (inactive) | GI50 [9]: > 100 µM (inactive) | GI50 [10]: > 100 µM (inactive) | GI50 [11]: > 100 µM (inactive) | GI50 [19]: > 100 µM (inactive) | GI50 [12]: > 100 µM (inactive) | GI50 [14]: 46.3 µM (inactive) | GI50 [20]: > 100 µM (inactive) | GI50 [15]: > 100 µM (inactive) | GI50 [16]: > 100 µM (inactive) | GI50 [17]: > 100 µM (inactive)

COc1ccc(/C=C/[N+](=O)[O-])cc1
GI50 [1]: 2.03 µM (inactive) | GI50 [2]: 14.9 µM (inactive) | GI50 [3]: 11.6 µM (inactive) | GI50 [4]: 8.07 µM (inactive) | GI50 [5]: 16.7 µM (inactive) | GI50 [6]: 13.2 µM (inactive) | GI50 [18]: 3.6 µM (inactive) | GI50 [8]: 2.92 µM (inactive) | GI50 [9]: 16.3 µM (inactive) | GI50 [10]: 3.18 µM (inactive) | GI50 [11]: 2.62 µM (inactive) | GI50 [19]: 30.7 µM (inactive) | GI50 [12]: 1.66 µM (inactive) | GI50 [14]: 2.13 µM (inactive) | GI50 [20]: 5.81 µM (inactive) | GI50 [15]: 9.75 µM (inactive) | GI50 [16]: 14.4 µM (inactive) | GI50 [17]: 4.03 µM (inactive)

NC1=C(Br)C(=O)c2ncccc2C1=O
GI50 [1]: 0.173 µM (active) | GI50 [2]: 0.232 µM (active) | GI50 [3]: 0.284 µM (active) | GI50 [4]: 0.632 µM (active) | GI50 [5]: 1.37 µM (inactive) | GI50 [6]: 1.61 µM (inactive) | GI50 [18]: 1.69 µM (inactive) | GI50 [7]: 1.51 µM (inactive) | GI50 [8]: 0.42 µM (active) | GI50 [9]: 0.815 µM (active) | GI50 [10]: 1.12 µM (active) | GI50 [11]: 0.367 µM (active) | GI50 [12]: 0.189 µM (active) | GI50 [14]: 0.137 µM (active) | GI50 [20]: 0.34 µM (active) | GI50 [15]: 0.156 µM (active) | GI50 [16]: 1.95 µM (inactive) | GI50 [17]: 0.177 µM (active)

O=c1cc(CO)n(CCc2c[nH]c3ccccc23)cc1O
GI50 [2]: 23.9 µM (inactive) | GI50 [3]: 47.8 µM (inactive) | GI50 [4]: 62.7 µM (inactive) | GI50 [6]: > 100 µM (inactive) | GI50 [7]: 46.2 µM (inactive) | GI50 [8]: 20.7 µM (inactive) | GI50 [9]: 36.2 µM (inactive) | GI50 [10]: 42.1 µM (inactive) | GI50 [11]: > 100 µM (inactive) | GI50 [19]: 32.3 µM (inactive) | GI50 [12]: > 100 µM (inactive) | GI50 [13]: > 100 µM (inactive) | GI50 [14]: > 100 µM (inactive) | GI50 [15]: 73.8 µM (inactive) | GI50 [16]: 81.5 µM (inactive) | GI50 [17]: 39.6 µM (inactive)

COc1cc(/C=C2\N=C(c3ccccc3)N(c3nc4c(OC)ccc(OC)c4s3)C2=O)cc(OC)c1OC
GI50 [2]: 66.1 µM (inactive) | GI50 [3]: 34.8 µM (inactive) | GI50 [4]: > 100 µM (inactive) | GI50 [5]: > 100 µM (inactive) | GI50 [6]: > 100 µM (inactive) | GI50 [7]: > 100 µM (inactive) | GI50 [8]: > 100 µM (inactive) | GI50 [9]: > 100 µM (inactive) | GI50 [10]: 61.8 µM (inactive) | GI50 [11]: > 100 µM (inactive) | GI50 [19]: > 100 µM (inactive) | GI50 [13]: 59.7 µM (inactive) | GI50 [14]: 51.8 µM (inactive) | GI50 [20]: > 100 µM (inactive) | GI50 [15]: > 100 µM (inactive) | GI50 [16]: > 100 µM (inactive) | GI50 [17]: 56.1 µM (inactive)

From ChEMBL document CHEMBL1201862, “PubChem BioAssay data set” (2004)
